Source: patent US11530317B2, “Deep eutectic solvent compositions” (SABIC GLOBAL TECHNOLOGIES B.V., priority 2017, dated 2022)
≈ marks a conversion by molar mass, not a printed value. Read-outs that look alike come from different tables or passages of the source.

How the values were obtained:
[1] = Quantification of solubility by visual inspection for undissolved material; type: physicochemical; details: for Enhancement factor: solubility in ChCl-urea DES relative to aqueous solution; for Solubility in water: obtained in this work
Method: Solubility was determined through adding an amount of CB[n] n=6, 7 or 8 or x-CD (where x=α, β or γ) to 1 mL of solvent followed by vortexing and heating the mixture to 80° C. The mixture was inspected visually to determine the presence of undissolved material. The mixture was then cooled to room temperature and the mixture re-examined to determine the presence of any undissolved material.

[2] = UV/vis probing of host-guest binding in ChCl-urea DES
Method: Methylviologen dichloride (2.0 mg, […], 1 eq.) was dissolved in ChCl:urea (1 mL) by vortexing and heating to 60° C. The methylviologen radical was formed by addition of a significant excess of reducing agent, sodium hydrosulfite, approx. 20 molar equivalents. To this solution CB[7] (9.0 mg, […], 1 eq.) was added and dissolved through stirring at 60° C. A sample of this solution (0.1 mL) was added to ChCl-urea (1 mL) and measured by UV/vis.
Methylviologen dichloride (2.0 mg, […], 1 eq.) was dissolved in ChCl:urea (1 mL) by vortexing and heating to 60° C. The methylviologen radical was formed by addition of a significant excess of reducing agent, sodium hydrosulfite, approx. 20 molar equivalents. To this solution CB[8] (10.1 mg, […], 1 eq. or 20.2 mg, 15.6 mmol, 2 eq.) was added and dissolved through stirring at 60° C. 0.1 ml of this solution were added to 1 ml of ChCl-urea and measured by UV/vis.
To probe the binding of γ-CD to MV^.+ a high concentration of MV^.+ was required on account of the lower binding constants of CDs compared to CB[n]. A solution of MV^.+ (15 mg/mL) was prepared (as described for CB[7] above) and to this γ-CD (170 mg, 2 equivalents) was added.

[3] = Solubility of methylviologen dichloride in ChCl-urea; type: physicochemical; details: ChCl-urea DES
Text: However, it should be noted that other anions, such as [PF6]^− and I^− were also found to be soluble and may also be used.

[4] = Long term UV/vis measurement of MV^+. in ChCl-urea DES exposed to air; type: physicochemical
Method: MV^2+ 2Cl^− (1 mg, 0.0039 mmol) was added to ChCl-urea DES (10 mL) and dissolved by heating to 80° C. for 30 min to give a 0.39 mM solution. The solution was then heated to 130° C. for 2 h during which time it had turned blue. A portion (1.5 mL) of the resulting blue solution was removed, placed in a cuvette and a UV/vis spectrum was recorded.
Spectra were recorded across a 100 h period in an open cuvette.
The solution was not degassed or covered in any way nor was any attempt to keep O2 out made.

[5] = Purging of MV^+. solutions (DES or water) with air, monitored by UV/vis at 609 nm; type: physicochemical
[6] = Cyclic voltammetry cycling stability of MV in DES in air; type: physicochemical; details: DES (ChCl-urea, ChCl-ethylene glycol, ChCl-glycerol), no degassing
Method: Electrochemical measurements were performed in air at 40° C. using a PalmSens EmStat potentiostat. A three-electrode cell was used, equipped with a glassy carbon working electrode (3 mm diameter, BASi), a Ag/AgCl reference electrode (BASi) and a platinum mesh counter electrode (Sigma-Aldrich). The working electrode was cleaned before experiments by mechanically polishing in alumina (Buehler, Micropolish, 1 μm) on a polishing cloth (Buehler, Microcloth).
Cyclic voltammetry (CV) was recorded at 0.1 V s^−1 scan rate and 5.0 mM MV^2+ 2Cl^− concentration. FcMeOH (5 mM) was used as an internal reference. Analyte solutions were prepared by heating the respective DES with MV^2+ 2Cl^− and FcMeOH to 80° C. for 30 min.
None of the solutions were degassed before measurement nor was any attempt made to exclude oxygen or air.

[7] = Photochemical switching of MV in DES (solar light simulator, then air purge); type: physicochemical; details: photogenerated radical in DES, purging with air
Method: DES MV^2+ solution (1.5 mL) in a quartz cuvette (1 cm path length, Hellma) was placed in a water bath held at 25° C. and irradiated by a solar light simulator (Newport Oriel, 100 mW cm^−2) equipped with an air mass 1.5 global filter (AM 1.5 G). IR irradiation was filtered with a water filter (10 cm path length). Samples were thermostatted at 25° C.
Stock solutions of MV^2+ in each of the three DES were prepared as follows: MV^2+ 2Cl^− (10 mg, 0.04 mmol) was added each individual DES (ChCl-urea, ChCl-glycerol and ChCl-ethylene glycol) (10 mL) separately and dissolved by heating to 80° C. for 30 min to give a colorless solution.
MV^2+ in DES (1.5 mL) was transferred to a quartz cuvette and placed in a water bath held at 25° C. in front of a solar light simulator. The sample was removed from the simulator and UV/vis spectra recorded at various time intervals to monitor the formation of MV^+..
The resultant blue MV^+. solutions were then purged with air (30 mL min^−1) using a mass flow controller (Brooks). UV/vis spectra were recorded at time intervals during the purging to monitor the disappearance of the MV^+. species.

[8] = values taken from Sabadini et al.; cited from earlier work
[9] = ChCl-urea DES, room temperature

| Compound | DES solubility (maximum solubility) [1, 9] | maximum solubility ([1]; ChCl-TsOH DES) [mg/mL] | maximum solubility ([1]; ChCl-urea DES) [mg/mL] | maximum solubility ([1]; H2O) [mg/mL] | maximum solubility ([1]; HCl (3M)) [mg/mL] | maximum solubility ([1]; NaCl (0.1M)) [mg/mL] | maximum solubility ([1]; Phosphate buffer (pH = 7.0)) [mg/mL] | Enhancement factor [1] | Solubility in water ([1]; water) [mg/mL] | host-guest binding with MV^.+ by UV/vis [2] | also measured |
| --- | --- | --- | --- | --- | --- | --- | --- | --- | --- | --- | --- |
| O=C1N2CN3C(=O)N4CN5C(=O)N6CN7C(=O)N8CN9C(=O)N%10CN1C1C2N2CN%11C(=O)N(CN%12C(=O)N(CN%13C(=O)N(CN%14C(=O)N(CN1C2=O)C%10C9%14)C8C7%13)C6C5%12)C4C3%11 (stereo not drawn) [CB[5]] | approx. 25 mg/mL |  |  |  |  |  |  |  |  |  |  |
| O=C1N2CN3C(=O)N4CN5C(=O)N6CN7C(=O)N8CN9C(=O)N%10CN%11C(=O)N%12CN1C1C2N2CN%13C(=O)N(CN%14C(=O)N(CN%15C(=O)N(CN%16C(=O)N(CN%17C(=O)N(CN1C2=O)C%12C%11%17)C%10C9%16)C8C7%15)C6C5%14)C4C3%13 (stereo not drawn) [CB[6]] | 1.0 mg/mL | 1.0 | 1.0 | <0.1 | 15.0 | 4.6 | 17.4 | 10 | <0.1 |  |  |
| O=C1N2CN3C(=O)N4CN5C(=O)N6CN7C(=O)N8CN9C(=O)N%10CN%11C(=O)N%12CN%13C(=O)N%14CN1C1C2N2CN%15C(=O)N(CN%16C(=O)N(CN%17C(=O)N(CN%18C(=O)N(CN%19C(=O)N(CN%20C(=O)N(CN1C2=O)C%14C%13%20)C%12C%11%19)C%10C9%18)C8C7%17)C6C5%16)C4C3%15 (stereo not drawn) [CB[7]] | 17 mg/mL | 18.0 | 17.0 | 4.4 | 100 | 14.8 | 19.8 | 3.9 | 4.4 (≈ 3.78 mM) | binding of MV^.+ is occurring | maximum solubility ([1]; ChCl-urea (1:2), room temperature): 15.0 mg cm^−3; maximum solubility in water ([1]; water): 4.4 mg cm^−3 |
| C[n+]1ccc(-c2cc[n+](C)cc2)cc1.[Cl-].[Cl-] [MV, N,N′-dimethyl-4,4′-bipyridinium dichloride] |  |  |  |  |  |  |  |  |  |  | solubility in ChCl-urea [3]: soluble; change in absorbance at 609 nm ([4]; ChCl-urea DES, exposed to air, 100 h period): no change in absorbance at 609 nm; time solutions remain blue ([4]; DES solutions prepared and stored in air): > 6 months; forecast lifetime ([4]; in DES, in air): > 6 months; radical lifetime upon purging with air ([5]; ChCl-ethylene glycol DES (36 cP)): shortest radical lifetime; radical lifetime upon purging with air ([5]; ChCl-glycerol DES (376 cP)): 900 min; radical lifetime upon purging with air ([5]; ChCl-urea DES (632 cP)): 400 min; time to complete quenching ([5]; aqueous solution, purging with air 0.1 mL min^−1): less than 4 min; persistence of radical species ([5]; in DES, purging with air 30 mL min^−1): 2 to 15 h; electrochemical cycling stability [6]: ≥ 100 cycles; time to revert to colourless [7]: ≤ 150 s |
| OC[C@H]1O[C@@H]2O[C@H]3[C@H](O)[C@@H](O)[C@@H](O[C@H]4[C@H](O)[C@@H](O)[C@@H](O[C@H]5[C@H](O)[C@@H](O)[C@@H](O[C@H]6[C@H](O)[C@@H](O)[C@@H](O[C@H]7[C@H](O)[C@@H](O)[C@@H](O[C@H]1[C@H](O)[C@H]2O)O[C@@H]7CO)O[C@@H]6CO)O[C@@H]5CO)O[C@@H]4CO)O[C@@H]3CO [α-CD] | >500 mg/mL |  |  |  |  |  |  | >3.5 |  |  | Solubility in water [8]: 129.5 mg/mL (≈ 133 mM) |
| OC[C@H]1O[C@@H]2O[C@H]3[C@H](O)[C@@H](O)[C@@H](O[C@H]4[C@H](O)[C@@H](O)[C@@H](O[C@H]5[C@H](O)[C@@H](O)[C@@H](O[C@H]6[C@H](O)[C@@H](O)[C@@H](O[C@H]7[C@H](O)[C@@H](O)[C@@H](O[C@H]8[C@H](O)[C@@H](O)[C@@H](O[C@H]1[C@H](O)[C@H]2O)O[C@@H]8CO)O[C@@H]7CO)O[C@@H]6CO)O[C@@H]5CO)O[C@@H]4CO)O[C@@H]3CO [β-CD] | >1000 mg/mL |  |  |  |  |  |  | >55 |  |  | CD content of the solution at that solubility ([1]; ChCl-urea DES): ~50 wt % |
| OC[C@H]1O[C@@H]2O[C@H]3[C@H](O)[C@@H](O)[C@@H](O[C@H]4[C@H](O)[C@@H](O)[C@@H](O[C@H]5[C@H](O)[C@@H](O)[C@@H](O[C@H]6[C@H](O)[C@@H](O)[C@@H](O[C@H]7[C@H](O)[C@@H](O)[C@@H](O[C@H]8[C@H](O)[C@@H](O)[C@@H](O[C@H]9[C@H](O)[C@@H](O)[C@@H](O[C@H]1[C@H](O)[C@H]2O)O[C@@H]9CO)O[C@@H]8CO)O[C@@H]7CO)O[C@@H]6CO)O[C@@H]5CO)O[C@@H]4CO)O[C@@H]3CO [γ-CD] | >1000 mg/mL |  |  |  |  |  |  | >4 |  | binding behaviour similar to the CB[8] system occurred | Solubility in water [8]: 249.2 mg/mL (≈ 192 mM); CD content of the solution at that solubility ([1]; ChCl-urea DES): ~50 wt % |
| Cucurbit[8]uril [CB[8]] | 2 mg/mL | 3.1 | 2.0 | <0.2 | 1.8 | 0.1 | 0.3 | 10 | <0.2 | formation of a 2:1 complex |  |
